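Exposure lasted 48 hours, with cells grown in 96-well plates and compounds tested at five concentrations. GI50: concentration for 50% inhibition of growth.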 The source made the active and inactive calls. Rule as the data show it: active = GI50 up to about 1.1 µM and inactive = higher. Where a SMILES comes first, the peptide text is derived from it. The star is where a group is joined. Boc = CC(C)(C)OC(=O)*; Bn = c1ccc(C*)cc1
Key:
Assay in all cases: growth of human tumour cells (NCI), 48 h
SK-MEL-28 = tested on: SK-MEL-28
NCI-H23 = tested on: NCI-H23
NCI/ADR-RES = tested on: NCI/ADR-RES
SR = tested on: SR
T47D = tested on: T47D
HCT-116 = tested on: HCT-116
SF-295 = tested on: SF-295
HOP-62 = tested on: HOP-62
LOX IMVI = tested on: LOX IMVI
MDA-MB-435 = tested on: MDA-MB-435
Hs-578T = tested on: Hs-578T
SF-539 = tested on: SF-539
SW-620 = tested on: SW-620
A549 = tested on: A549
OVCAR-8 = tested on: OVCAR-8
HOP-92 = tested on: HOP-92
HCT-15 = tested on: HCT-15
M14 = tested on: M14
SNB-75 = tested on: SNB-75
K562 = tested on: K562

Structure (SMILES)	GI50 (SK-MEL-28)	GI50 (NCI-H23)	GI50 (NCI/ADR-RES)	GI50 (SR)	GI50 (T47D)	GI50 (HCT-116)	GI50 (SF-295)	GI50 (HOP-62)	GI50 (LOX IMVI)	GI50 (MDA-MB-435)	GI50 (Hs-578T)	GI50 (SF-539)	GI50 (SW-620)	GI50 (A549)	GI50 (OVCAR-8)	GI50 (HOP-92)	GI50 (HCT-15) [µM]	GI50 (M14)	GI50 (SNB-75)	GI50 (K562)
O=C(O)c1ccccc1-c1ccccc1C(=O)Nc1ccc2c(c1)Cc1ccccc1-2	40.8 µM (inactive)	18 µM (inactive)	45 µM (inactive)	28.4 µM (inactive)	26.3 µM (inactive)	18 µM (inactive)	39.1 µM (inactive)	58.6 µM (inactive)	22.5 µM (inactive)	41.9 µM (inactive)	48.5 µM (inactive)	21.9 µM (inactive)	31.8 µM (inactive)	29.2 µM (inactive)	43.6 µM (inactive)	46.8 µM (inactive)	20.4	21.6 µM (inactive)	68.4 µM (inactive)	
C/C=C1/CN2CCC34c5ccccc5N5C(=O)C(C6CC78c9ccccc9N9C(=O)C=CC(C%10CC7N6C/C%10=C/C)C98)=CC(C1CC23)C54 (stereo unspecified)	5.41 µM (inactive)	5.98 µM (inactive)	8.34 µM (inactive)	0.667 µM (active)	11.1 µM (inactive)	5.53 µM (inactive)	9.2 µM (inactive)	8.59 µM (inactive)	10.3 µM (inactive)	6.28 µM (inactive)	8.11 µM (inactive)	1.11 µM (active)	1.59 µM (inactive)	8.15 µM (inactive)	2.06 µM (inactive)	6.32 µM (inactive)	3.75	5.52 µM (inactive)	6.62 µM (inactive)	1.62 µM (inactive)
Oc1nc2c(c(-c3cccc(Cl)c3)n1)COC/C2=C\c1cccc(Cl)c1		> 100 µM (inactive)	> 100 µM (inactive)	> 100 µM (inactive)	> 100 µM (inactive)	> 100 µM (inactive)	> 100 µM (inactive)	> 100 µM (inactive)	> 100 µM (inactive)	> 100 µM (inactive)	> 100 µM (inactive)	> 100 µM (inactive)	> 100 µM (inactive)		> 100 µM (inactive)	> 100 µM (inactive)	> 100	> 100 µM (inactive)	> 100 µM (inactive)	> 100 µM (inactive)
NC(=O)/C=C/NC(=O)/C=N\O	> 100 µM (inactive)		> 100 µM (inactive)	> 100 µM (inactive)	> 100 µM (inactive)	> 100 µM (inactive)	> 100 µM (inactive)	> 100 µM (inactive)	> 100 µM (inactive)	> 100 µM (inactive)	> 100 µM (inactive)	> 100 µM (inactive)	> 100 µM (inactive)		> 100 µM (inactive)	> 100 µM (inactive)	> 100	> 100 µM (inactive)	> 100 µM (inactive)	> 100 µM (inactive)
COC(=O)C[C@H]1[C@]2(C)C3=C(C)[C@H](c4ccoc4)CC3O[C@@H]2[C@@H]2OC(=O)[C@]3(C)CCC(=O)[C@@]1(C)[C@@H]23 (stereo partly specified)	32.5 µM (inactive)	46.5 µM (inactive)	48.6 µM (inactive)	19.6 µM (inactive)	> 100 µM (inactive)	35.4 µM (inactive)	> 100 µM (inactive)	> 100 µM (inactive)	40.1 µM (inactive)	37.2 µM (inactive)	36.1 µM (inactive)		50.6 µM (inactive)	47.1 µM (inactive)	44.8 µM (inactive)	> 100 µM (inactive)	38.8	41.6 µM (inactive)	42.8 µM (inactive)	35.2 µM (inactive)
C/C(Cl)=N\OC(=O)Nc1ccc([N+](=O)[O-])cc1	17.2 µM (inactive)	21.5 µM (inactive)	17.6 µM (inactive)	6.79 µM (inactive)	9.48 µM (inactive)	7.94 µM (inactive)	16.8 µM (inactive)	> 100 µM (inactive)	5.36 µM (inactive)	18.8 µM (inactive)	25 µM (inactive)	16.3 µM (inactive)	2 µM (inactive)	21.6 µM (inactive)	15.1 µM (inactive)	2.59 µM (inactive)	14.1	12.9 µM (inactive)	16.7 µM (inactive)	2.02 µM (inactive)
C[C@]12CC[C@H]3[C@@H](CC[C@]4(O)C[C@@H](O)CC[C@]34/C=N/O)[C@@]1(O)CC[C@@H]2C1=COC(=O)C1	0.482 µM (active)	0.0644 µM (active)	0.141 µM (active)	0.0504 µM (active)	0.317 µM (active)	0.0403 µM (active)	0.0545 µM (active)	0.102 µM (active)	0.136 µM (active)	0.257 µM (active)	0.112 µM (active)	0.104 µM (active)	0.191 µM (active)	0.0336 µM (active)	0.154 µM (active)	0.2 µM (active)	0.158	0.289 µM (active)	0.332 µM (active)	0.12 µM (active)
COC(=O)[C@]1(C)CCC[C@]2(C)[C@@H](CCC(=O)C(C)C)[C@]3(C=O)O[C@@H]3C[C@H]21	> 100 µM (inactive)	28.1 µM (inactive)	25.7 µM (inactive)	30.7 µM (inactive)	21.8 µM (inactive)	21.7 µM (inactive)	36.1 µM (inactive)		24.7 µM (inactive)	28.2 µM (inactive)	41.6 µM (inactive)	74.6 µM (inactive)	47.6 µM (inactive)	> 100 µM (inactive)	39.4 µM (inactive)	29.8 µM (inactive)	26.6	32.1 µM (inactive)	17.1 µM (inactive)	27.9 µM (inactive)
COC(=O)C(CC(C)C)NC(=O)C(C)NC(=O)C(Cc1ccc(OCc2ccccc2)cc1)NC(=O)C(COCc1ccccc1)NC(=O)OC(C)(C)C (stereo unspecified) (Boc-S(Bn)Y(Bn)AL-OMe; configuration not given here)	> 100 µM (inactive)	> 100 µM (inactive)	> 100 µM (inactive)	> 100 µM (inactive)	> 100 µM (inactive)	> 100 µM (inactive)	> 100 µM (inactive)	> 100 µM (inactive)	> 100 µM (inactive)	> 100 µM (inactive)	58.3 µM (inactive)	> 100 µM (inactive)	> 100 µM (inactive)	> 100 µM (inactive)	> 100 µM (inactive)	> 100 µM (inactive)		> 100 µM (inactive)	> 100 µM (inactive)	> 100 µM (inactive)
Cc1c[nH]c2c(O)cc3c(c12)[C@H](CCl)CN3C(=O)c1cc2cc(NC(=O)Nc3ccc4[nH]c(C(=O)N5C[C@@H](CCl)c6c5cc(O)c5[nH]cc(C)c65)cc4c3)ccc2[nH]1 [BIZELESIN]	14.6 µM (inactive)	1.9 µM (inactive)	0.071 µM (active)	0.0832 µM (active)	< 0.001 µM (active)	2.6 µM (inactive)	6.35 µM (inactive)	1.05 µM (active)	3.6 µM (inactive)	0.113 µM (active)	> 100 µM (inactive)	1.24 µM (inactive)	17.4 µM (inactive)	11 µM (inactive)	2.62 µM (inactive)	48.5 µM (inactive)		0.631 µM (active)	1.09 µM (active)	23.9 µM (inactive)
